In the supplement of paper PMC10733146:

Columns and labels:
Assay in all cases: viability relative to DMSO control (fraction); higher = less drug effect (more viable cells)
Conditions in all cases: 48 h
SGC 0946 = compound: CC(C)N(CCCNC(=O)Nc1ccc(C(C)(C)C)cc1)C[C@H]1O[C@@H](n2cc(Br)c3c(N)ncnc32)[C@H](O)[C@@H]1O [SGC 0946]
Procedure, shortened: (§1)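 Cells were incubated for 48 h at 37 °C and 5% CO2 in RPMI-1640 with penicillin/streptomycin, L-glutamine and human serum, at 4 × 10^4 cells per well in 384-well plates with compounds pre-plated at five concentrations, one well each. These were primary mononuclear tumour cells, fresh or cryopreserved, Ficoll-isolated from blood or bone marrow or obtained from processed lymph node. Viability values are CellTiter-Glo luminescence relative to the median of 16 inner DMSO wells.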

Venetoclax = compound: CC1(C)CCC(CN2CCN(c3ccc(C(=O)NS(=O)(=O)c4ccc(NCC5CCOCC5)c([N+](=O)[O-])c4)c(Oc4cnc5[nH]ccc5c4)c3)CC2)=C(c2ccc(Cl)cc2)C1 [Venetoclax]
Procedure, shortened: as §1

EPZ-6438 = compound: CCN(c1cc(-c2ccc(CN3CCOCC3)cc2)cc(C(=O)NCc2c(C)cc(C)[nH]c2=O)c1C)C1CCOCC1 [EPZ-6438]
Procedure, shortened: as §1

CPI-169 = compound: CCS(=O)(=O)N1CCC([C@@H](C)n2c(C)c(C(=O)NCc3c(OC)cc(C)[nH]c3=O)c3ccccc32)CC1 [CPI-169]
Procedure, shortened: as §1

[1] = compound: CCc1ccc(/C=C2/SC(=S)NC2=O)cc1
Procedure, shortened: as §1

Everolimus = compound: CO[C@H]1C[C@@H]2CC[C@@H](C)[C@@](O)(O2)C(=O)C(=O)N2CCCC[C@H]2C(=O)O[C@H]([C@H](C)C[C@@H]2CC[C@@H](OCCO)[C@H](OC)C2)CC(=O)[C@H](C)/C=C(\C)[C@@H](O)[C@@H](OC)C(=O)[C@H](C)C[C@H](C)/C=C/C=C/C=C/1C [Everolimus]
Procedure, shortened: as §1

Tofacitinib = compound: C[C@@H]1CCN(C(=O)CC#N)C[C@@H]1N(C)c1ncnc2[nH]ccc12 [Tofacitinib]
Procedure, shortened: as §1

Entospletinib = compound: c1cn2cc(-c3ccc4cn[nH]c4c3)nc(Nc3ccc(N4CCOCC4)cc3)c2n1 [Entospletinib]
Procedure, shortened: as §1

Vindesine = compound: CC[C@]1(O)C[C@@H]2CN(CCc3c([nH]c4ccccc34)[C@@](C(=O)OC)(c3cc4c(cc3OC)N(C)[C@H]3[C@@](O)(C(N)=O)[C@H](O)[C@]5(CC)C=CCN6CC[C@]43[C@@H]65)C2)C1 [Vindesine]
Procedure, shortened: as §1

Midostaurin hydrate = compound: CO[C@@H]1[C@H](N(C)C(=O)c2ccccc2)C[C@H]2O[C@]1(C)n1c3ccccc3c3c4c(c5c6ccccc6n2c5c31)C(=O)NC4 [Midostaurin hydrate]
Procedure, shortened: as §1

Idasanutlin (RS7388) = compound: COc1cc(C(=O)O)ccc1NC(=O)[C@@H]1N[C@@H](CC(C)(C)C)[C@](C#N)(c2ccc(Cl)cc2F)[C@H]1c1cccc(Cl)c1F [Idasanutlin (RS7388)]
Procedure, shortened: as §1

[2] = compound: C[C@H](NC(=O)CCC(F)(F)F)C(=O)N[C@@H]1C(=O)N(CCO)c2ncccc2-c2ccccc21
Procedure, shortened: as §1

[3] = compound: C[C@H]1C[C@@H](n2c(Nc3ccc(OC(F)(F)F)cc3)nc3cc(CCC(=O)O)ccc32)CC(C)(C)C1
Procedure, shortened: as §1

## primary T-NHL patient cells (S058)
SGC 0946; 0.024 µM
  viability: 1.19
SGC 0946; 0.12 µM
  viability: 1.12
SGC 0946; 0.6 µM
  viability: 0.867
SGC 0946; 3 µM
  viability: 1.01
SGC 0946; 15 µM
  viability: 0.486
Venetoclax; 0.00064 µM
  viability: 1.06
Venetoclax; 0.0032 µM
  viability: 1.13
Venetoclax; 0.016 µM
  viability: 0.921
Venetoclax; 0.08 µM
  viability: 0.718
Venetoclax; 0.4 µM
  viability: 0.547
EPZ-6438; 0.024 µM
  viability: 1.21
EPZ-6438; 0.12 µM
  viability: 1.24
EPZ-6438; 0.6 µM
  viability: 1.03
EPZ-6438; 3 µM
  viability: 1.16
EPZ-6438; 15 µM
  viability: 0.95
CPI-169; 0.024 µM
  viability: 1.03
CPI-169; 0.12 µM
  viability: 1.06
CPI-169; 0.6 µM
  viability: 0.995
CPI-169; 3 µM
  viability: 1.05
CPI-169; 15 µM
  viability: 0.961
[1]; 0.024 µM
  viability: 0.89
[1]; 0.12 µM
  viability: 0.978
[1]; 0.6 µM
  viability: 1.14
[1]; 3 µM
  viability: 0.927
[1]; 15 µM
  viability: 0.909
Everolimus; 0.0032 µM
  viability: 0.922
Everolimus; 0.016 µM
  viability: 1.07
Everolimus; 0.08 µM
  viability: 0.954
Everolimus; 0.4 µM
  viability: 1.03
Everolimus; 2 µM
  viability: 0.944
Tofacitinib; 0.024 µM
  viability: 0.865
Tofacitinib; 0.12 µM
  viability: 0.895
Tofacitinib; 0.6 µM
  viability: 0.94
Tofacitinib; 3 µM
  viability: 0.935
Tofacitinib; 15 µM
  viability: 0.937
Entospletinib; 0.024 µM
  viability: 1.03
Entospletinib; 0.12 µM
  viability: 1.09
Entospletinib; 0.6 µM
  viability: 0.875
Entospletinib; 3 µM
  viability: 1.04
Entospletinib; 15 µM
  viability: 1.06

## primary DLBCL patient cells (S049)
SGC 0946; 0.024 µM
  viability: 0.919
SGC 0946; 0.12 µM
  viability: 1.05
SGC 0946; 0.6 µM
  viability: 0.926
SGC 0946; 3 µM
  viability: 0.719
SGC 0946; 15 µM
  viability: 0.183
Venetoclax; 0.00064 µM
  viability: 0.898
Venetoclax; 0.0032 µM
  viability: 0.593
Venetoclax; 0.016 µM
  viability: 0.149
Venetoclax; 0.08 µM
  viability: 0.0521
Venetoclax; 0.4 µM
  viability: 0.0447
EPZ-6438; 0.024 µM
  viability: 1.08
EPZ-6438; 0.12 µM
  viability: 1.08
EPZ-6438; 0.6 µM
  viability: 1.03
EPZ-6438; 3 µM
  viability: 1.05
EPZ-6438; 15 µM
  viability: 0.811
CPI-169; 0.024 µM
  viability: 1.03
CPI-169; 0.12 µM
  viability: 1.02
CPI-169; 0.6 µM
  viability: 1.05
CPI-169; 3 µM
  viability: 0.991
CPI-169; 15 µM
  viability: 0.97
[1]; 0.024 µM
  viability: 0.744
[1]; 0.12 µM
  viability: 0.798
[1]; 0.6 µM
  viability: 0.902
[1]; 3 µM
  viability: 0.873
[1]; 15 µM
  viability: 0.737
Everolimus; 0.0032 µM
  viability: 1.1
Everolimus; 0.016 µM
  viability: 1.04
Everolimus; 0.08 µM
  viability: 1.09
Everolimus; 0.4 µM
  viability: 1.05
Everolimus; 2 µM
  viability: 1.02
Tofacitinib; 0.024 µM
  viability: 0.811
Tofacitinib; 0.12 µM
  viability: 0.775
Tofacitinib; 0.6 µM
  viability: 0.926
Tofacitinib; 3 µM
  viability: 1.01
Tofacitinib; 15 µM
  viability: 1.32
Entospletinib; 0.024 µM
  viability: 0.951
Entospletinib; 0.12 µM
  viability: 0.834
Entospletinib; 0.6 µM
  viability: 0.804
Entospletinib; 3 µM
  viability: 0.886
Entospletinib; 15 µM
  viability: 0.892

## primary AML patient cells (S055)
SGC 0946; 0.024 µM
  viability: 0.987
SGC 0946; 0.12 µM
  viability: 1
SGC 0946; 0.6 µM
  viability: 1.02
SGC 0946; 3 µM
  viability: 0.986
SGC 0946; 15 µM
  viability: 0.836
EPZ-6438; 0.024 µM
  viability: 1.01
EPZ-6438; 0.12 µM
  viability: 1.04
EPZ-6438; 0.6 µM
  viability: 0.976
EPZ-6438; 3 µM
  viability: 0.97
EPZ-6438; 15 µM
  viability: 0.917
CPI-169; 0.024 µM
  viability: 0.982
CPI-169; 0.12 µM
  viability: 0.989
CPI-169; 0.6 µM
  viability: 1.07
CPI-169; 3 µM
  viability: 1.03
CPI-169; 15 µM
  viability: 1
Vindesine; 0.016 µM
  viability: 1.1
Vindesine; 0.08 µM
  viability: 0.777
Vindesine; 0.4 µM
  viability: 0.448
Vindesine; 2 µM
  viability: 0.363
Vindesine; 10 µM
  viability: 0.359
Midostaurin hydrate; 0.024 µM
  viability: 1.06
Midostaurin hydrate; 0.12 µM
  viability: 1.02
Midostaurin hydrate; 0.6 µM
  viability: 1.09
Midostaurin hydrate; 3 µM
  viability: 1.12
Midostaurin hydrate; 15 µM
  viability: 1.1
Everolimus; 0.0032 µM
  viability: 0.904
Everolimus; 0.016 µM
  viability: 0.96
Everolimus; 0.08 µM
  viability: 0.89
Everolimus; 0.4 µM
  viability: 0.951
Everolimus; 2 µM
  viability: 0.914
Idasanutlin (RS7388); 0.032 µM
  viability: 0.872
Idasanutlin (RS7388); 0.16 µM
  viability: 0.934
Idasanutlin (RS7388); 0.8 µM
  viability: 0.694
Idasanutlin (RS7388); 4 µM
  viability: 0.389
Idasanutlin (RS7388); 20 µM
  viability: 0.229
Tofacitinib; 0.024 µM
  viability: 0.979
Tofacitinib; 0.12 µM
  viability: 0.964
Tofacitinib; 0.6 µM
  viability: 0.913
Tofacitinib; 3 µM
  viability: 0.949
Tofacitinib; 15 µM
  viability: 0.946
[2]; 0.016 µM
  viability: 1.05
[2]; 0.08 µM
  viability: 1.09
[2]; 0.4 µM
  viability: 1.06
[2]; 2 µM
  viability: 1.08
[2]; 10 µM
  viability: 1
[3]; 0.024 µM
  viability: 0.953
[3]; 0.12 µM
  viability: 1.03
[3]; 0.6 µM
  viability: 0.997
[3]; 3 µM
  viability: 0.923
[3]; 15 µM
  viability: 0.994
